In brackets after ≈: the same amount, converted by molar mass.
Legend:
Saccharomyces cerevisiae [1] = assay: DNA damaging activity against RS322YK rad52Y DNA repair gene deficient Saccharomyces cerevisiae mutant assessed as drug level required to produce 12 mm zone of inhibition after 48 hrs; format: functional
Saccharomyces cerevisiae [2] = assay: DNA damaging activity against RS167N rad6 DNA repair gene deficient Saccharomyces cerevisiae mutant assessed as drug level required to produce 12 mm zone of inhibition after 48 hrs; format: functional
[3] = Cytotoxicity against CHOAUXB1 cells; format: cell-based; conditions: Cricetulus griseus
Saccharomyces cerevisiae [4] = assay: DNA damaging activity against RS188N rad DNA repair gene expressing Saccharomyces cerevisiae assessed as drug level required to produce 12 mm zone of inhibition after 48 hrs; format: functional
Saccharomyces cerevisiae [5] = assay: DNA damaging activity against RS321 DNA repair gene deficient Saccharomyces cerevisiae mutant assessed as drug level required to produce 12 mm zone of inhibition after 48 hrs; format: functional

Row | Compound | IC12 (Saccharomyces cerevisiae [1]) [µg/mL] | IC12 (Saccharomyces cerevisiae [2]) [µg/mL] | IC50 [3] [µg/mL] | IC12 (Saccharomyces cerevisiae [4]) [µg/mL] | IC12 (Saccharomyces cerevisiae [5]) [µg/mL]
1 | CC[C@@]1(O)C(=O)OCc2c1cc1n(c2=O)Cc2cc3ccccc3nc2-1 [CAMPTOTHECIN] | 0.6 | 8.7 | 0.016 (≈ 0.0459 µM) | – | –
2 | CC(C)=CCC/C(C)=C/CNC(=N)NC/C=C(\C)CCC=C(C)C [NITENSIDINE A] | > 1000 | > 8000 | 13 (≈ 39.2 µM) | > 1000 | 6
3 | CC(C)=CCC/C(C)=C/CN(C/C=C(\C)CCC=C(C)C)C(=N)N [NITENSIDINE B] | > 500 | > 8000 | 9.3 (≈ 28.1 µM) | > 1000 | 10
4 | CC(C)=CCC/C(C)=C/CN(C)C(=N)N(C)C/C=C(\C)CCC=C(C)C [NITENSIDINE C] | > 8000 | > 8000 | 20 (≈ 55.6 µM) | > 8000 | 13
5 | CC(C)=CCNC(=N)NCC=C(C)C [PTEROGYNIDINE] | > 1000 | > 1000 | – | > 1000 | 8.5
6 | COC1=C(N)C(=O)c2nc(-c3nc(C(=O)O)c(C)c(-c4ccc(OC)c(OC)c4O)c3N)ccc2C1=O [STREPTONIGRIN] | 0.4 | 2.4 | – | – | –
